Laboratory results as given in ChEMBL document CHEMBL3525917, “Species difference in the mechanism of nonlinear pharmacokinetics of E2074, a novel sodium channel inhibitor, in rats, dogs, and monkeys” (Drug Metab Dispos, 2013).

Molecular target: MDR1A (P-glycoprotein, ABCB1) (Mus musculus, UniProt P21447)
Assay: Activity of mouse MDR1A expressed in pig LLC-PK1 cells assessed as efflux ratio of permeability from basolateral to apical side to apical to basolateral side at 1 uM after 2 hrs
Assay type: ADME, cell-based

Sequence of MDR1A (P-glycoprotein, ABCB1) (P21447 whole entry): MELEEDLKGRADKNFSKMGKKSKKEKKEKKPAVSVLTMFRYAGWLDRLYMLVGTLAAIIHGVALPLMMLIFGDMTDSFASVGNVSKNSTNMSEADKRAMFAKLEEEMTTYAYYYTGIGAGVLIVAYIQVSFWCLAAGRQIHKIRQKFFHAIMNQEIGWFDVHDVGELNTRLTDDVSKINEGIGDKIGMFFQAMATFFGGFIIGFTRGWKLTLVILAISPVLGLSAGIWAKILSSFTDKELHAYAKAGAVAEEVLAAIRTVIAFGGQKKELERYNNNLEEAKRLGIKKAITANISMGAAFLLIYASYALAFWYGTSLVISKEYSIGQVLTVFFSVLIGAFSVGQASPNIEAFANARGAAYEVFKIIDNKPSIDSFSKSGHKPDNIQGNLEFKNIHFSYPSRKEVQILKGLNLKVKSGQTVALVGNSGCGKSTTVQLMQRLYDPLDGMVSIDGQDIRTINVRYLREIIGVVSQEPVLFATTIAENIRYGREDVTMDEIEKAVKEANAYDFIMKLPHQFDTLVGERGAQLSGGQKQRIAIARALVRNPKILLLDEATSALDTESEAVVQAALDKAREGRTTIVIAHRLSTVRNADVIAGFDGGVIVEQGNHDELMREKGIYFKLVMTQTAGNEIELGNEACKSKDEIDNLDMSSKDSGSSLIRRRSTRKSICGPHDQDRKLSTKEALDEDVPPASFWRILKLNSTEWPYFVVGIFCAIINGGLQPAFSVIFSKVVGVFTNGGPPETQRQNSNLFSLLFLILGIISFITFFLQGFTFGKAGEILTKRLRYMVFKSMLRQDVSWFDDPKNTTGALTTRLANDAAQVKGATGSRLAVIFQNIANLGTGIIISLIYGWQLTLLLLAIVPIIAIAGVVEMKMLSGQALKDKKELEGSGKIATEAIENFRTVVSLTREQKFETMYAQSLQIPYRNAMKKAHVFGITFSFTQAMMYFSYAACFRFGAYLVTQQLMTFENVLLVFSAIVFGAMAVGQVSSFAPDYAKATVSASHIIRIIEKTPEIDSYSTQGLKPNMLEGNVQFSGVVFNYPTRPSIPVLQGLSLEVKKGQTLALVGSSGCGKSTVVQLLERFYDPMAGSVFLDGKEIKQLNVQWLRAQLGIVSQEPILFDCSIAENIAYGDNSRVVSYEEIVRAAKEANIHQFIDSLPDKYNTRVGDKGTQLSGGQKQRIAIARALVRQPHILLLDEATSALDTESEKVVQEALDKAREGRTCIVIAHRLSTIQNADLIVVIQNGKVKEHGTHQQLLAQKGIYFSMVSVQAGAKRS

CN(C)C(=O)C(CCN1CCC(O)(c2ccc(Cl)cc2)CC1)(c1ccccc1)c1ccccc1.Cl [LOPERAMIDE HYDROCHLORIDE]
efflux ratio at 2 h, 1 µM: 9
